# Test results taken from patent US9113629B2, “4-amino-6-(4-substituted-phenyl)-picolinates and 6-amino-2-(4-substituted-phenyl)-pyrimidine-4-carboxylates and their use as herbicides” (DOW AGROSCIENCES LLC, priority 2013, dated 2015).
# Tested on: not given
# Assay: not given
# Settings: not given
row,melting point [°C],SMILES
1,164.2 to 166.8,C#Cc1ccc(-c2nc(C(=O)OC)c(Cl)c(N)c2Cl)cc1 [Compound 34]

# Tested on: Key Broadleaf Weed and Crop Species
# Assay: Post-emergent Test II herbicidal activity (Table 5)
# Assay type: in vivo
# Settings: post-emergence, 336 h; ABUTH: velvetleaf (Abutilon theophrasti); 70 g ai/ha; post-emergent; 14 days after application; read-out: Visual Growth Reduction (%) 14 Days After Application ABUTH
# Summary of the method: (§1)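 Greenhouse post-emergent assay: seedlings (first/second true leaf) in Metro-Mix 360 were sprayed at 187 L/ha at a top rate plus twofold dilutions down to 1/16×; solvent-blank controls were included. Percent visual injury was read at 14 d.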
row,SMILES,pest or weed control at 70 g/ha [%]
1,C#Cc1ccc(-c2nc(C(=O)OC)c(Cl)c(N)c2Cl)cc1 [Compound 34],95 to 100

# Same assay, conditions: post-emergence, 336 h; ABUTH: velvetleaf (Abutilon theophrasti); 140 g ai/ha; post-emergent; 14 days after application; read-out: Visual Growth Reduction (%) 14 Days After Application ABUTH
row,SMILES,pest or weed control at 140 g/ha [%]
1,C#Cc1ccc(-c2nc(C(=O)OC)c(Cl)c(N)c2Cl)cc1 [Compound 34],95 to 100

# Same assay, conditions: post-emergence, 336 h; AMARE: redroot pigweed (Amaranthus retroflexus); 70 g ai/ha; post-emergent; 14 days after application; read-out: Visual Growth Reduction (%) 14 Days After Application AMARE
row,SMILES,pest or weed control at 70 g/ha [%]
1,C#Cc1ccc(-c2nc(C(=O)OC)c(Cl)c(N)c2Cl)cc1 [Compound 34],95 to 100

# Same assay, conditions: post-emergence, 336 h; AMARE: redroot pigweed (Amaranthus retroflexus); 140 g ai/ha; post-emergent; 14 days after application; read-out: Visual Growth Reduction (%) 14 Days After Application AMARE
row,SMILES,pest or weed control at 140 g/ha [%]
1,C#Cc1ccc(-c2nc(C(=O)OC)c(Cl)c(N)c2Cl)cc1 [Compound 34],95 to 100

# Same assay, conditions: post-emergence, 336 h; BRSNN: oilseed-rape, canola (Brassica napus); 70 g ai/ha; post-emergent; 14 days after application; read-out: Visual Growth Reduction (%) 14 Days After Application BRSNN
row,SMILES,pest or weed control at 70 g/ha [%]
1,C#Cc1ccc(-c2nc(C(=O)OC)c(Cl)c(N)c2Cl)cc1 [Compound 34],85 to 94

# Same assay, conditions: post-emergence, 336 h; BRSNN: oilseed-rape, canola (Brassica napus); 140 g ai/ha; post-emergent; 14 days after application; read-out: Visual Growth Reduction (%) 14 Days After Application BRSNN
row,SMILES,pest or weed control at 140 g/ha [%]
1,C#Cc1ccc(-c2nc(C(=O)OC)c(Cl)c(N)c2Cl)cc1 [Compound 34],95 to 100

# Same assay, conditions: post-emergence, 336 h; CHEAL: lambsquarters (Chenopodium album); 70 g ai/ha; post-emergent; 14 days after application; read-out: Visual Growth Reduction (%) 14 Days After Application CHEAL
row,SMILES,pest or weed control at 70 g/ha [%]
1,C#Cc1ccc(-c2nc(C(=O)OC)c(Cl)c(N)c2Cl)cc1 [Compound 34],95 to 100

# Same assay, conditions: post-emergence, 336 h; CHEAL: lambsquarters (Chenopodium album); 140 g ai/ha; post-emergent; 14 days after application; read-out: Visual Growth Reduction (%) 14 Days After Application CHEAL
row,SMILES,pest or weed control at 140 g/ha [%]
1,C#Cc1ccc(-c2nc(C(=O)OC)c(Cl)c(N)c2Cl)cc1 [Compound 34],95 to 100

# Same assay, conditions: post-emergence, 336 h; EPHHL: wild poinsettia (Euphorbia heterophylla); 70 g ai/ha; post-emergent; 14 days after application; read-out: Visual Growth Reduction (%) 14 Days After Application EPHHL
row,SMILES,pest or weed control at 70 g/ha [%]
1,C#Cc1ccc(-c2nc(C(=O)OC)c(Cl)c(N)c2Cl)cc1 [Compound 34],75 to 84

# Same assay, conditions: post-emergence, 336 h; EPHHL: wild poinsettia (Euphorbia heterophylla); 140 g ai/ha; post-emergent; 14 days after application; read-out: Visual Growth Reduction (%) 14 Days After Application EPHHL
row,SMILES,pest or weed control at 140 g/ha [%]
1,C#Cc1ccc(-c2nc(C(=O)OC)c(Cl)c(N)c2Cl)cc1 [Compound 34],85 to 94

# Same assay, conditions: post-emergence, 336 h; HELAN: sunflower (Helianthus annuus); 70 g ai/ha; post-emergent; 14 days after application; read-out: Visual Growth Reduction (%) 14 Days After Application HELAN
row,SMILES,pest or weed control at 70 g/ha [%]
1,C#Cc1ccc(-c2nc(C(=O)OC)c(Cl)c(N)c2Cl)cc1 [Compound 34],95 to 100

# Same assay, conditions: post-emergence, 336 h; HELAN: sunflower (Helianthus annuus); 140 g ai/ha; post-emergent; 14 days after application; read-out: Visual Growth Reduction (%) 14 Days After Application HELAN
row,SMILES,pest or weed control at 140 g/ha [%]
1,C#Cc1ccc(-c2nc(C(=O)OC)c(Cl)c(N)c2Cl)cc1 [Compound 34],95 to 100

# Same assay, conditions: post-emergence, 336 h; VIOTR: wild pansy (Viola tricolor); 70 g ai/ha; post-emergent; 14 days after application; read-out: Visual Growth Reduction (%) 14 Days After Application VIOTR
row,SMILES,pest or weed control at 70 g/ha [%]
1,C#Cc1ccc(-c2nc(C(=O)OC)c(Cl)c(N)c2Cl)cc1 [Compound 34],0 to 29

# Same assay, conditions: post-emergence, 336 h; VIOTR: wild pansy (Viola tricolor); 140 g ai/ha; post-emergent; 14 days after application; read-out: Visual Growth Reduction (%) 14 Days After Application VIOTR
row,SMILES,pest or weed control at 140 g/ha [%]
1,C#Cc1ccc(-c2nc(C(=O)OC)c(Cl)c(N)c2Cl)cc1 [Compound 34],0 to 29

# Tested on: Key Grass and Sedge Weeds as well as Grass Crops
# Assay: Post-emergent Test II herbicidal activity (Table 6)
# Assay type: in vivo
# Settings: Triticum aestivum, post-emergence, 336 h, TRZSS (wheat), application rate 70 g ai/ha, read-out: Visual Growth Reduction (%) 14 Days After Application, TRZSS
# Summary of the method: as §1
row,SMILES,pest or weed control at 70 g/ha [%]
1,C#Cc1ccc(-c2nc(C(=O)OC)c(Cl)c(N)c2Cl)cc1 [Compound 34],60 to 74

# Same assay, conditions: Triticum aestivum, post-emergence, 336 h, TRZSS (wheat), application rate 140 g ai/ha, read-out: Visual Growth Reduction (%) 14 Days After Application, TRZSS
row,SMILES,pest or weed control at 140 g/ha [%]
1,C#Cc1ccc(-c2nc(C(=O)OC)c(Cl)c(N)c2Cl)cc1 [Compound 34],60 to 74

# Same assay, conditions: post-emergence, 336 h, CYPES: yellow nutsedge (Cyperus esculentus), application rate 70 g ai/ha, read-out: Visual Growth Reduction (%) 14 Days After Application, CYPES
row,SMILES,pest or weed control at 70 g/ha [%]
1,C#Cc1ccc(-c2nc(C(=O)OC)c(Cl)c(N)c2Cl)cc1 [Compound 34],60 to 74

# Same assay, conditions: post-emergence, 336 h, CYPES: yellow nutsedge (Cyperus esculentus), application rate 140 g ai/ha, read-out: Visual Growth Reduction (%) 14 Days After Application, CYPES
row,SMILES,pest or weed control at 140 g/ha [%]
1,C#Cc1ccc(-c2nc(C(=O)OC)c(Cl)c(N)c2Cl)cc1 [Compound 34],60 to 74

# Same assay, conditions: post-emergence, 336 h, DIGSA: crabgrass (Digitaria sanguinalis), application rate 70 g ai/ha, read-out: Visual Growth Reduction (%) 14 Days After Application, DIGSA
row,SMILES,pest or weed control at 70 g/ha [%]
1,C#Cc1ccc(-c2nc(C(=O)OC)c(Cl)c(N)c2Cl)cc1 [Compound 34],0 to 29

# Same assay, conditions: post-emergence, 336 h, DIGSA: crabgrass (Digitaria sanguinalis), application rate 140 g ai/ha, read-out: Visual Growth Reduction (%) 14 Days After Application, DIGSA
row,SMILES,pest or weed control at 140 g/ha [%]
1,C#Cc1ccc(-c2nc(C(=O)OC)c(Cl)c(N)c2Cl)cc1 [Compound 34],45 to 59

# Same assay, conditions: post-emergence, 336 h, ECHCG: barnyardgrass (Echinochloa crus-galli), application rate 70 g ai/ha, read-out: Visual Growth Reduction (%) 14 Days After Application, ECHCG
row,SMILES,pest or weed control at 70 g/ha [%]
1,C#Cc1ccc(-c2nc(C(=O)OC)c(Cl)c(N)c2Cl)cc1 [Compound 34],0 to 29

# Same assay, conditions: post-emergence, 336 h, ECHCG: barnyardgrass (Echinochloa crus-galli), application rate 140 g ai/ha, read-out: Visual Growth Reduction (%) 14 Days After Application, ECHCG
row,SMILES,pest or weed control at 140 g/ha [%]
1,C#Cc1ccc(-c2nc(C(=O)OC)c(Cl)c(N)c2Cl)cc1 [Compound 34],0 to 29

# Same assay, conditions: post-emergence, 336 h, ORYSA: rice (Oryza sativa), application rate 70 g ai/ha, read-out: Visual Growth Reduction (%) 14 Days After Application, ORYSA
row,SMILES,pest or weed control at 70 g/ha [%]
1,C#Cc1ccc(-c2nc(C(=O)OC)c(Cl)c(N)c2Cl)cc1 [Compound 34],0 to 29

# Same assay, conditions: post-emergence, 336 h, ORYSA: rice (Oryza sativa), application rate 140 g ai/ha, read-out: Visual Growth Reduction (%) 14 Days After Application, ORYSA
row,SMILES,pest or weed control at 140 g/ha [%]
1,C#Cc1ccc(-c2nc(C(=O)OC)c(Cl)c(N)c2Cl)cc1 [Compound 34],0 to 29

# Same assay, conditions: post-emergence, 336 h, SETFA: giant foxtail (Setaria faberi), application rate 70 g ai/ha, read-out: Visual Growth Reduction (%) 14 Days After Application, SETFA
row,SMILES,pest or weed control at 70 g/ha [%]
1,C#Cc1ccc(-c2nc(C(=O)OC)c(Cl)c(N)c2Cl)cc1 [Compound 34],75 to 84

# Same assay, conditions: post-emergence, 336 h, SETFA: giant foxtail (Setaria faberi), application rate 140 g ai/ha, read-out: Visual Growth Reduction (%) 14 Days After Application, SETFA
row,SMILES,pest or weed control at 140 g/ha [%]
1,C#Cc1ccc(-c2nc(C(=O)OC)c(Cl)c(N)c2Cl)cc1 [Compound 34],85 to 94

# Same assay, conditions: post-emergence, 336 h, SORVU: grain sorghum (Sorghum vulgare), application rate 70 g ai/ha, read-out: Visual Growth Reduction (%) 14 Days After Application, SORVU
row,SMILES,pest or weed control at 70 g/ha [%]
1,C#Cc1ccc(-c2nc(C(=O)OC)c(Cl)c(N)c2Cl)cc1 [Compound 34],30 to 44

# Same assay, conditions: post-emergence, 336 h, SORVU: grain sorghum (Sorghum vulgare), application rate 140 g ai/ha, read-out: Visual Growth Reduction (%) 14 Days After Application, SORVU
row,SMILES,pest or weed control at 140 g/ha [%]
1,C#Cc1ccc(-c2nc(C(=O)OC)c(Cl)c(N)c2Cl)cc1 [Compound 34],45 to 59

# Same assay, conditions: post-emergence, 336 h, ZEAMX: maize, corn (Zea mays), application rate 70 g ai/ha, read-out: Visual Growth Reduction (%) 14 Days After Application, ZEAMX
row,SMILES,pest or weed control at 70 g/ha [%]
1,C#Cc1ccc(-c2nc(C(=O)OC)c(Cl)c(N)c2Cl)cc1 [Compound 34],60 to 74

# Same assay, conditions: post-emergence, 336 h, ZEAMX: maize, corn (Zea mays), application rate 140 g ai/ha, read-out: Visual Growth Reduction (%) 14 Days After Application, ZEAMX
row,SMILES,pest or weed control at 140 g/ha [%]
1,C#Cc1ccc(-c2nc(C(=O)OC)c(Cl)c(N)c2Cl)cc1 [Compound 34],60 to 74
